Values joined by “and” are separate entries in the source; they are usually repeats but may differ in a detail not shown here. Identical values can stand only once.
System: ANGIOTENSIN II (AII) VASOPRESSOR RESPONSE
Assay: AII Challenge: angiotensin II (AII) vasopressor response in conscious rats
Format: in vivo
Set-up: Response After AII / Change / Average Change: unit not given here
Details: for Response After AII / Change / Control Before AII: individual rat; for Control Before AII: in mmHg (unit assumed); for % Inhibition / Average Change: n = 2
In short: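 Conscious male Okamoto-Aoki SHR (16-20 weeks, ~330 g), aorta/vena cava cannulated, challenged with AII 0.05 and 0.1 ug/kg i.v. before and at 30-300 min after compound dosed i.v., i.p. or orally. Systolic pressure rise expressed relative to each rat's predose response (100%).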

[1] = 10 mg/kg i.v., AII 0.05 mcg/kg, 30 min post dose
[2] = 10 mg/kg i.v., AII 0.05 mcg/kg, 30 min post dose, listed as Ex. 20
[3] = 10 mg/kg i.v., AII 0.1 mcg/kg, 30 min post dose, listed as Ex. 20
[4] = 10 mg/kg i.v., AII 0.1 mcg/kg, 30 min post dose
[5] = 20 mg/kg i.v., AII 0.05 mcg/kg, 60 min post dose
[6] = 20 mg/kg i.v., AII 0.05 mcg/kg, 60 min post dose, listed as Ex. 20
[7] = 20 mg/kg i.v., AII 0.05 mcg/kg, 90 min post dose
[8] = 20 mg/kg i.v., AII 0.05 mcg/kg, 90 min post dose, listed as Ex. 20
[9] = 20 mg/kg i.v., AII 0.05 mcg/kg, 120 min post dose
[10] = 20 mg/kg i.v., AII 0.05 mcg/kg, 120 min post dose, listed as Ex. 20
[11] = 20 mg/kg i.v., AII 0.05 mcg/kg, 180 min post dose
[12] = 20 mg/kg i.v., AII 0.05 mcg/kg, 180 min post dose, listed as Ex. 20
[13] = 20 mg/kg i.v., AII 0.05 mcg/kg, 240 min post dose
[14] = 20 mg/kg i.v., AII 0.05 mcg/kg, 240 min post dose, listed as Ex. 20
[15] = 20 mg/kg i.v., AII 0.05 mcg/kg, 300 min post dose, listed as Ex. 20
[16] = 20 mg/kg i.v., AII 0.05 mcg/kg, 300 min post dose
[17] = 20 mg/kg i.v., AII 0.1 mcg/kg, 60 min post dose
[18] = 20 mg/kg i.v., AII 0.1 mcg/kg, 60 min post dose, listed as Ex. 20
[19] = 20 mg/kg i.v., AII 0.1 mcg/kg, 90 min post dose
[20] = 20 mg/kg i.v., AII 0.1 mcg/kg, 90 min post dose, listed as Ex. 20
[21] = 20 mg/kg i.v., AII 0.1 mcg/kg, 120 min post dose
[22] = 20 mg/kg i.v., AII 0.1 mcg/kg, 120 min post dose, listed as Ex. 20
[23] = 20 mg/kg i.v., AII 0.1 mcg/kg, 180 min post dose
[24] = 20 mg/kg i.v., AII 0.1 mcg/kg, 180 min post dose, listed as Ex. 20
[25] = 20 mg/kg i.v., AII 0.1 mcg/kg, 240 min post dose, listed as Ex. 20
[26] = 20 mg/kg i.v., AII 0.1 mcg/kg, 240 min post dose
[27] = 20 mg/kg i.v., AII 0.1 mcg/kg, 300 min post dose, listed as Ex. 20
[28] = 20 mg/kg i.v., AII 0.1 mcg/kg, 300 min post dose

CCCCc1nc2c(Br)cnn2c(=O)n1Cc1ccc(-c2ccccc2-c2nn[nH]n2)cc1 [Example 20]
Response After AII [1]: 245
Change [2]: 38 and 15
Response After AII [2]: 215
Control Before AII [2]: 207 and 200
% Inhibition [1]: 34%
Average Change [1]: 26.5
Change [3]: 45 and 35
Response After AII [3]: 260 and 235
Control Before AII [3]: 215 and 200
% Inhibition [4]: 36%
Average Change [4]: 40
Change [5]: 20
Response After AII [5]: 200
Response After AII [6]: 215
Control Before AII [6]: 195 and 180
% Inhibition [5]: 50%
Average Change [5]: 20
Response After AII [7]: 200
Change [8]: 10 and 25
Response After AII [8]: 225
Control Before AII [8]: 215 and 175
% Inhibition [7]: 56%
Average Change [7]: 17.5
Response After AII [9]: 250
Change [10]: 45 and 20
Response After AII [10]: 215
Control Before AII [10]: 205 and 195
% Inhibition [9]: 19%
Average Change [9]: 32.5
Response After AII [11]: 210
Control Before AII [11]: 185
Change [12]: 40 and 25
Response After AII [12]: 225
% Inhibition [11]: 19%
Average Change [11]: 32.5
Response After AII [13]: 230
Control Before AII [13]: 185
Change [14]: 45 and 40
Response After AII [14]: 225
% Inhibition [13]: -6%
Average Change [13]: 42.5
Change [15]: 50 and 35
Response After AII [15]: 240 and 235
Control Before AII [15]: 190 and 200
% Inhibition [16]: -6%
Average Change [16]: 42.5
Response After AII [17]: 200
Change [18]: 15 and 20
Response After AII [18]: 215
Control Before AII [18]: 200 and 180
% Inhibition [17]: 72%
Average Change [17]: 17.5
Response After AII [19]: 245
Change [20]: 40 and 30
Response After AII [20]: 215
Control Before AII [20]: 205 and 185
% Inhibition [19]: 44%
Average Change [19]: 35
Response After AII [21]: 250
Change [22]: 35 and 20
Response After AII [22]: 215
Control Before AII [22]: 215 and 195
% Inhibition [21]: 56%
Average Change [21]: 27.5
Response After AII [23]: 225
Change [24]: 30 and 60
Control Before AII [24]: 195 and 165
% Inhibition [23]: 28%
Average Change [23]: 45
Change [25]: 60 and 55
Response After AII [25]: 260 and 245
Control Before AII [25]: 200 and 190
% Inhibition [26]: 8%
Average Change [26]: 57.5
Change [27]: 45 and 55
Response After AII [27]: 265 and 245
Control Before AII [27]: 220 and 190
% Inhibition [28]: 20%
Average Change [28]: 50
